The record followed here is ChEMBL document CHEMBL1137894, “3-Thio-quinolinone maxi-K openers for the treatment of erectile dysfunction” (2004).

The structures appear in SMILES notation.

For test [1], the species on record is Oryctolagus cuniculus. Briefly: Percentage relaxation of phenylephrine-contracted rabbit corpus cavernosum tissue strips at concentration of 10 uM. The class given is functional.
The test system of test [2] is Oocyte. Briefly: Percentage opening of human Maxi-K channel in transfected oocyte cells at 20 uM. The class given is cell-based.
Test [3] deals with Oocyte. Briefly: Percentage opening of human Maxi-K channel in transfected oocyte cells at 5 uM. The class given is cell-based.
In test [4] the test system is Oocyte. Briefly: Percentage opening of human Maxi-K channel in transfected oocyte cells at 10 uM. The class given is cell-based.

As to `CN1CCN(CC(=O)Nc2ccc(Sc3c(O)nc4ccc(C(F)(F)F)cc4c3-c3cc(Cl)ccc3O)cc2)CC1`, in test [1], the Relaxation was 19%. In addition, the Activity in test [2] is 246%.

In test [1], `CN(C)CCN(C)CC(=O)Nc1ccc(Sc2c(O)nc3ccc(C(F)(F)F)cc3c2-c2cc(Cl)ccc2O)cc1` showed a Relaxation of 16%. In addition, the Activity in test [2] was 231%.

Regarding `O=C(CSc1c(O)nc2ccc(C(F)(F)F)cc2c1-c1cc(Cl)ccc1O)N1CCN(CCOCCO)CC1`, the Relaxation in test [1] came out at 17%. Moreover, the Activity in test [2] was determined as 205%.

In test [2], `O=C(CCN1CCC(O)CC1)CSc1c(O)nc2ccc(C(F)(F)F)cc2c1-c1cc(Cl)ccc1O` came in with an Activity of 235%.

In turn, `O=C(CCCN1CCC(N2CCCCC2)CC1)CSc1c(O)nc2ccc(C(F)(F)F)cc2c1-c1cc(Cl)ccc1O` showed an Activity in test [2] of 298%.

`O=C(CCCN1CCC(N2CCCCC2)CC1)Nc1ccc(Sc2c(O)nc3ccc(C(F)(F)F)cc3c2-c2cc(Cl)ccc2O)cc1` showed a Relaxation in test [1] of 28%. Further, the Activity in test [2] was 268%.

Take `CN1CCC(N(C)CCCC(=O)CSc2c(O)nc3ccc(C(F)(F)F)cc3c2-c2cc(Cl)ccc2O)C1` (stereo not drawn): the Activity in test [2] is 226%.

On to `O=C(CCN1CCC(N2CCCCC2)CC1)Nc1ccc(Sc2c(O)nc3ccc(C(F)(F)F)cc3c2-c2cc(Cl)ccc2O)cc1`, for which, in test [1], the Relaxation was determined as 23%. Besides, the Activity in test [2] was determined as 255%.

On to `O=C(CN1CCCC1)Nc1ccc(Sc2c(O)nc3ccc(C(F)(F)F)cc3c2-c2cc(Cl)ccc2O)cc1`, for which the Relaxation in test [1] is 28%. This compound had an Activity in test [2] of 291%.

With `COc1ccc(Cl)cc1-c1c(SCC(O)CN2CCSCC2)c(O)nc2ccc(C(F)(F)F)cc12` (stereo not drawn), the Activity in test [2] stood at 97%.

For `CN(C)S(=O)(=O)Nc1ccc(Sc2c(O)nc3ccc(C(F)(F)F)cc3c2-c2cc(Cl)ccc2O)cc1`, in test [3], the Activity amounted to 222%.

For the compound `COc1ccc(Cl)cc1-c1c(Sc2ccc(NS(=O)(=O)N(C)C)cc2)c(O)nc2ccc(C(F)(F)F)cc12`, the Activity in test [3] turned out to be 114%.

`OCCN1CCN(CC(O)CSc2c(O)nc3ccc(C(F)(F)F)cc3c2-c2cc(Cl)ccc2O)CC1` (stereo not drawn) returned a Relaxation in test [1] of 44%. In test [2], this compound displayed an Activity of 287%.

In turn, `CC1CCN(CCCC(=O)CSc2c(O)nc3ccc(C(F)(F)F)cc3c2-c2cc(Cl)ccc2O)CC1` registered an Activity in test [2] of 213%.

In test [2], `CN(CCCN1CCN(C)CC1)CCC(O)CSc1c(O)nc2ccc(C(F)(F)F)cc2c1-c1cc(Cl)ccc1O` (stereo not drawn) gave an Activity of 515%.

Take `O=C(CN1CCC(N2CCCCC2)CC1)Nc1ccc(Sc2c(O)nc3ccc(C(F)(F)F)cc3c2-c2cc(Cl)ccc2O)cc1`: the Relaxation in test [1] is 45%. The Activity in test [2] turned out to be 283%.

`Oc1ccc(Cl)cc1-c1c(SCC(O)CN2CCOCC2)c(O)nc2ccc(C(F)(F)F)cc12` (stereo not drawn) showed a Relaxation in test [1] of 49%. In addition, in test [2], the Activity worked out at 292%.

`CCN(CC)CC(O)CSc1c(O)nc2ccc(C(F)(F)F)cc2c1-c1cc(Cl)ccc1O` (stereo not drawn) gave a Relaxation in test [1] of 57%. In test [2], this compound returned an Activity of 192%.

Take `CN1CCN(C(=O)CSc2c(O)nc3ccc(C(F)(F)F)cc3c2-c2cc(Cl)ccc2O)CC1`: in test [1], the Relaxation worked out at 14%. In test [2], this compound displayed an Activity of 422%.

In test [2], `CN(C)CCN1CCN(CC(O)CSc2c(O)nc3ccc(C(F)(F)F)cc3c2-c2cc(Cl)ccc2O)CC1` (stereo not drawn) gave an Activity of 113%.

Regarding `COc1ccc(Cl)cc1-c1c(Sc2ccc(NS(=O)(=O)C(F)(F)F)cc2)c(O)nc2ccc(C(F)(F)F)cc12`, the Relaxation in test [1] was determined as 21%. Besides, the Activity in test [2] turned out to be 235%.

On to `Oc1ccc(Cl)cc1-c1c(SCC(O)CN2CCCC2)c(O)nc2ccc(C(F)(F)F)cc12` (stereo not drawn), for which the Activity in test [2] came out at 192%.

With `CN(C)CCCN(C)CC(O)CSc1c(O)nc2ccc(C(F)(F)F)cc2c1-c1cc(Cl)ccc1O` (stereo not drawn), the Activity in test [2] was found to be 214%.

`O=C(CCN1CCCCC1)CSc1c(O)nc2ccc(C(F)(F)F)cc2c1-c1cc(Cl)ccc1O` registered an Activity in test [2] of 199%.

Consider `CC(=O)N1CCN(CCCC(=O)CSc2c(O)nc3ccc(C(F)(F)F)cc3c2-c2cc(Cl)ccc2O)CC1`, for which the Activity in test [2] was found to be 284%.

In turn, `O=C(CN1CCN(c2ccccn2)CC1)Nc1ccc(Sc2c(O)nc3ccc(C(F)(F)F)cc3c2-c2cc(Cl)ccc2O)cc1` returned a Relaxation in test [1] of 17%. Further, in test [3], the Activity was 116%.

In test [1], `O=C(CCN1CCN(c2ccccn2)CC1)Nc1ccc(Sc2c(O)nc3ccc(C(F)(F)F)cc3c2-c2cc(Cl)ccc2O)cc1` had a Relaxation of 37%. This compound gave an Activity in test [4] of 169%.

Consider `CC1CCCN(CCCC(=O)CSc2c(O)nc3ccc(C(F)(F)F)cc3c2-c2cc(Cl)ccc2O)C1` (stereo not drawn), for which the Activity in test [2] amounted to 271%.

`COc1ccc(Cl)cc1-c1c(SCC(O)CN2CCN(C)CC2)c(O)nc2ccc(C(F)(F)F)cc12` (stereo not drawn) gave an Activity in test [2] of 163%.

Consider `CCS(=O)(=O)Nc1ccc(Sc2c(O)nc3ccc(C(F)(F)F)cc3c2-c2cc(Cl)ccc2O)cc1`, for which the Activity in test [4] came to 296%.

`COc1ccc(Cl)cc1-c1c(SCC(O)CN2CCC(C)CC2)c(O)nc2ccc(C(F)(F)F)cc12` (stereo not drawn) gave an Activity in test [2] of 115%.

Consider `CCCS(=O)(=O)Nc1ccc(Sc2c(O)nc3ccc(C(F)(F)F)cc3c2-c2cc(Cl)ccc2OC)cc1`, for which, in test [3], the Activity worked out at 95%.

In test [2], `CN1CCN(CCC(=O)CSc2c(O)nc3ccc(C(F)(F)F)cc3c2-c2cc(Cl)ccc2O)CC1` showed an Activity of 550%.

For `O=c1[nH]c2ccc(C(F)(F)F)cc2c(-c2cc(Cl)ccc2O)c1CCO` [BMS-223131], the Relaxation in test [1] was found to be 83.7%. The compound also yielded an Activity in test [2] of 378%.

In test [1], `CCOC(=O)CN1CCN(C(=O)CSc2c(O)nc3ccc(C(F)(F)F)cc3c2-c2cc(Cl)ccc2O)CC1` gave a Relaxation of 19%. Moreover, the Activity in test [2] is 281%.

In test [1], `O=S(=O)(CCCN1CCOCC1)Nc1ccc(Sc2c(O)nc3ccc(C(F)(F)F)cc3c2-c2cc(Cl)ccc2O)cc1` yielded a Relaxation of 35%. In addition, the Activity in test [2] was 354%.

In turn, `CN1CCN(CCC(=O)Nc2ccc(Sc3c(O)nc4ccc(C(F)(F)F)cc4c3-c3cc(Cl)ccc3O)cc2)CC1` returned a Relaxation in test [1] of 30%. In test [2], the Activity is 474%.

`O=S(=O)(CC(F)(F)F)Nc1ccc(Sc2c(O)nc3ccc(C(F)(F)F)cc3c2-c2cc(Cl)ccc2O)cc1`: the Activity in test [2] is 170%.

`O=C(CCCN1CCN(c2ccccn2)CC1)Nc1ccc(Sc2c(O)nc3ccc(C(F)(F)F)cc3c2-c2cc(Cl)ccc2O)cc1` had a Relaxation in test [1] of 37%. This compound also gave an Activity in test [4] of 197%.

As to `O=C(CCN1CCN(CCO)CC1)CSc1c(O)nc2ccc(C(F)(F)F)cc2c1-c1cc(Cl)ccc1O`, the Activity in test [2] came to 241%.

`CN(C)CCN(C)CCC(=O)Nc1ccc(Sc2c(O)nc3ccc(C(F)(F)F)cc3c2-c2cc(Cl)ccc2O)cc1` gave a Relaxation in test [1] of 29%. In test [2], this compound yielded an Activity of 489%.

For the compound `CN(C)C1CCN(C(=O)CSc2c(O)nc3ccc(C(F)(F)F)cc3c2-c2cc(Cl)ccc2O)CC1`, the Relaxation in test [1] worked out at 35%. The same compound had an Activity in test [2] of 286%.

In turn, `COc1ccc(Cl)cc1-c1c(SCC(O)CN2CCN(C(C)=O)CC2)c(O)nc2ccc(C(F)(F)F)cc12` (stereo not drawn) had an Activity in test [2] of 192%.

In the case of `O=C(CSc1c(O)nc2ccc(C(F)(F)F)cc2c1-c1cc(Cl)ccc1O)N1CCN(CCO)CC1`, the Relaxation in test [1] is recorded as 22%. This compound also came in with an Activity in test [2] of 151%.

`Oc1ccc(Cl)cc1-c1c(SCC(O)CN2CCSCC2)c(O)nc2ccc(C(F)(F)F)cc12` (stereo not drawn): the Relaxation in test [1] is on record as 48%. The same compound registered an Activity in test [2] of 319%.

As to `O=C(CCCN1CCCC1)Nc1ccc(Sc2c(O)nc3ccc(C(F)(F)F)cc3c2-c2cc(Cl)ccc2O)cc1`, the Relaxation in test [1] was 36%. Also, the Activity in test [2] came to 280%.

`COc1ccc(Cl)cc1-c1c(SCC(O)CN2CCC(O)CC2)c(O)nc2ccc(C(F)(F)F)cc12` (stereo not drawn) gave an Activity in test [2] of 125%.

On to `NC(=O)C1CCN(C(=O)CSc2c(O)nc3ccc(C(F)(F)F)cc3c2-c2cc(Cl)ccc2O)CC1`, for which the Relaxation in test [1] came out at 67%. The Activity in test [2] came out at 203%.

On to `CCCS(=O)(=O)Nc1ccc(Sc2c(O)nc3ccc(C(F)(F)F)cc3c2-c2cc(Cl)ccc2O)cc1`, for which, in test [3], the Activity was 255%.

Consider `O=C(CN1CCOCC1)Nc1ccc(Sc2c(O)nc3ccc(C(F)(F)F)cc3c2-c2cc(Cl)ccc2O)cc1`, for which the Relaxation in test [1] came to 34%. The Activity in test [4] stood at 296%.

For `O=S(=O)(Nc1ccc(Sc2c(O)nc3ccc(C(F)(F)F)cc3c2-c2cc(Cl)ccc2O)cc1)C(F)(F)F`, in test [1], the Relaxation amounted to 32%. The same compound came in with an Activity in test [2] of 277%.

On to `COc1ccc(Cl)cc1-c1c(SCC(O)CN2CCN(c3ncccn3)CC2)c(O)nc2ccc(C(F)(F)F)cc12` (stereo not drawn), for which the Activity in test [3] turned out to be 80%.

Regarding `O=C(CCN1CCOCC1)Nc1ccc(Sc2c(O)nc3ccc(C(F)(F)F)cc3c2-c2cc(Cl)ccc2O)cc1`, the Relaxation in test [1] is recorded as 22%. The Activity in test [2] was determined as 453%.

Compound `CN(C)CCCN(C)CCC(=O)CSc1c(O)nc2ccc(C(F)(F)F)cc2c1-c1cc(Cl)ccc1O` displayed an Activity in test [2] of 178%.

`O=C(CCN1CCCC1)CSc1c(O)nc2ccc(C(F)(F)F)cc2c1-c1cc(Cl)ccc1O` registered a Relaxation in test [1] of 30%. This compound yielded an Activity in test [2] of 335%.

Turning to `O=C(CCN1CCCC1)Nc1ccc(Sc2c(O)nc3ccc(C(F)(F)F)cc3c2-c2cc(Cl)ccc2O)cc1`, in test [1], the Relaxation was 35%. This compound registered an Activity in test [2] of 264%.

`CN(C)C1CCN(CC(=O)Nc2ccc(Sc3c(O)nc4ccc(C(F)(F)F)cc4c3-c3cc(Cl)ccc3O)cc2)CC1` displayed a Relaxation in test [1] of 19%. The compound also registered an Activity in test [2] of 292%.
